The assay addresses T1, PPARG (peroxisome proliferator activated receptor-gamma), GST-PPARG-LBD (Homo sapiens, UniProt P37231).
T1 construct: 15 μL of 5 nM GST-PPARG-LBD and 5 nM Tb-GST-antibody were added; purchased Invitrogen PV4894
T1 sequence (P37231 238-503 limits assumed): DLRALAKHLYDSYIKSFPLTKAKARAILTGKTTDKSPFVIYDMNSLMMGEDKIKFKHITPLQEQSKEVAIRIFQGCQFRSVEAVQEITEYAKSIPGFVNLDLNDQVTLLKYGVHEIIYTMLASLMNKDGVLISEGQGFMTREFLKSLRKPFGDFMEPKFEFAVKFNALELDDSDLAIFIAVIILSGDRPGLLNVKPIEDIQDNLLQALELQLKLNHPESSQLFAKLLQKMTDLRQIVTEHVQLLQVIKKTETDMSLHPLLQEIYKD
Kind of assay: LanthaScreen TR-FRET PPARG Competitive Binding Assay. More on the design: key: “+” indicates the degree of the binding activity, and as the number of “+” increases, the binding activity is stronger; ++: “+” indicates the degree of the binding activity, and as the number of “+” increases, the binding activity is stronger; +++: “+” indicates the degree of the binding activity, and as the number of “+” increases, the binding activity is stronger; ++++: “+” indicates the degree of the binding activity, and as the number of “+” increases, the binding activity is stronger. The note with it: degree of binding activity. As to the method:
The following experiment was performed to evaluate the PPARG (peroxisome proliferator activated receptor-gamma) binding capacity and transcriptional activity of the compounds prepared in the examples of the invention. For the experiment, LanthaScreen™ TR-FRET PPARG Competitive Binding Assay Kit (PV4894, Invitrogen) was used according to the manufacturer's instruction. […] The mixture was loaded in a 384-well plate (Greiner, 784075) by 20 μL per well, followed by reaction at room temperature for 1 hour. Upon completion of the reaction, fluorescence value was measured by using Flexstation 3 (Molecular Devices) with time-resolved fluorescence (RFU) mode (excitation 1: 340 nm, emission 1: 518 nm, excitation 2: 340 nm, emission 2: 488 nm, integration delay 50 μs, integration 400 μs). The results were calculated by using 518 nm RFUs/488 nm RFUs ratio. The activity of the compounds of the invention was compared with that of the vehicle, which was calculated by ratio according to the formula [100%−compound of the example ratio/vehicle ratio]. At this time, the binding activity ratio to rosiglitazone was compared.
On the technique in general: TR-FRET usually uses a lanthanide donor and a delayed reading to cut background.

As to `NC(=O)c1ccccc1-c1ccc(CN2CCCc3cc(C(=O)NCc4ccc(Br)cc4)ccc32)cc1` [Example 53, N-(4-bromobenzyl)-1-((2′-carbamoyl-[1,1′-biphenyl]-4-yl)methyl)-1,2,3,4-tetrahydroquinoline-6-carboxamide], the “Binding assay (1 μLM)” value is reported as “+++”.

For the molecule `NC(=O)c1ccccc1-c1ccc(CN2CCCc3cc(C(=O)NCc4cccc(OC(F)(F)F)c4)ccc32)cc1` [Example 54, 1-((2′-carbamoyl-[1,1′-biphenyl]-4-yl)methyl)-N-(3-(trifluoromethoxy)benzyl)-1,2,3,4-tetrahydroquinoline-6-carboxamide], the “Binding assay (1 μLM)” value was “+++”.

For the molecule `C[C@H](NC(=O)c1ccc2c(c1)OCCN2Cc1ccc(-c2ccccc2C(N)=O)cc1)c1ccccc1` [Example 59, (S)-4-((2′-carbamoyl-[1,1′-biphenyl]-4-yl)methyl)-N-(1-phenylethyl)-3,4-dihydro-2H-benzo[b][1, 4]oxazine-7-carboxamide], the “Binding assay (1 μLM)” value is recorded as “++”.

On to `C[C@H](NC(=O)c1ccc2c(c1)OCCN2Cc1ccc(-c2ccccc2C(=O)O)cc1)c1ccc(Br)cc1` [Example 61, (S)-4′-((7-((1-(4-bromophenyl)ethyl)carbamoyl)-2H-benzo[b][1,4]oxazine-4(3H)-yl)methyl)-[1,1′-biphenyl]-2-carboxylic acid], for which the “Binding assay (1 μLM)” value is recorded as “++”.

`CC[C@H](NC(=O)c1ccc2c(c1)OCCN2Cc1ccc(-c2ccccc2C(=O)O)cc1)c1ccccc1` [Example 62, (S)-4′-((7-((1-phenylpropyl)carbamoyl)-2H-benzo[b][1,4]oxazine-4(3H)-yl)methyl)-[1,1′-biphenyl]-2-carboxylic acid]: the “Binding assay (1 μLM)” value is “+++”.

`C[C@H](NC(=O)c1ccc2c(c1)OCCN2Cc1ccc(-c2ccccc2C(=O)O)cc1)c1ccc(F)cc1` [Example 63, (S)-4′-((7-((1-(4-fluorophenyl)ethyl)carbamoyl)-2H-benzo[b][1,4]oxazine-4(3H)-yl)methyl)-[1,1′-biphenyl]-2-carboxylic acid]: the “Binding assay (1 μLM)” value is on record as “+”.

For `C[C@H](NC(=O)c1ccc2c(c1)OCCN2Cc1ccc(-c2ccccc2C(=O)O)cc1)c1ccc(Cl)cc1` [Example 64, (S)-4′-((7-((1-(4-chlorophenyl)ethyl)carbamoyl)-2H-benzo[b][1,4]oxazine-4(3H)-yl)methyl)-[1,1′-biphenyl]-2-carboxylic acid], the “Binding assay (1 μLM)” value is recorded as “+”.

Consider `C[C@H](NC(=O)c1ccc2c(c1)OCCN2Cc1ccc(-c2ccccc2C(=O)O)cc1)c1cccc(Cl)c1` [Example 65, (S)-4′-((7-((1-(3-chlorophenyl)ethyl)carbamoyl)-2H-benzo[b][1,4]oxazine-4(3H)-yl)methyl)-[1,1′-biphenyl]-2-carboxylic acid], for which the “Binding assay (1 μLM)” value is recorded as “++”.

With `O=C(NCc1ccc([N+](=O)[O-])cc1)c1ccc2c(c1)OCCN2Cc1ccc(-c2ccccc2C(=O)O)cc1` [Example 66, 4′-((7-((4-nitrobenzyl)carbamoyl)-2H-benzo[b][1,4]oxazine-4(3H)-yl)methyl)-[1,1′-biphenyl]-2-carboxylic acid], the “Binding assay (1 μLM)” value was “+”.

Take `O=C(NCc1ccccc1)c1ccc2c(c1)OCCN2Cc1ccc(-c2ccccc2C(=O)O)cc1` [Example 67, 4′-((7-(benzylcarbamoyl)-2H-benzo[b][1,4]oxazine-4(38)-yl)methyl)-[1,1′-biphenyl]-2-carboxylic acid]: the “Binding assay (1 μLM)” value is reported as “++”.

With `O=C(NCCc1ccccc1)c1ccc2c(c1)OCCN2Cc1ccc(-c2ccccc2C(=O)O)cc1` [Example 68, 4′-((7-(phenethylcarbamoyl)-2H-benzo[b][1,4]oxazine-4(3H)-yl)methyl)-[1,1′-biphenyl]-2-carboxylic acid], the “Binding assay (1 μLM)” value is reported as “++”.

Take `O=C(NCc1ccco1)c1ccc2c(c1)OCCN2Cc1ccc(-c2ccccc2C(=O)O)cc1` [Example 69, 4′-((7-((furan-2-ylmethyl)carbamoyl)-2H-benzo[b][1,4]oxazine-4(3H)-yl)methyl)-[1,1′-biphenyl]-2-carboxylic acid-A]: the “Binding assay (1 μLM)” value is recorded as “+”.

In the case of `C[C@H](NC(=O)c1ccc2c(c1)OCCN2Cc1ccc(-c2ccccc2C(=O)O)cc1)c1cccc2ccccc12` [Example 70, (S)-4′-((7-((1-(naphthalene-1-yl)ethyl)carbamoyl)-2H-benzo[b][1,4]oxazine-4(3H)-yl)methyl)-[1,1′-biphenyl]-2-carboxylic acid], the “Binding assay (1 μLM)” value is “++”.

In the case of `COC(=O)c1ccc(CNC(=O)c2ccc3c(c2)OCCN3Cc2ccc(-c3ccccc3C(=O)O)cc2)cc1` [Example 71, 4′-((7-((4-(methoxycarbonyl)benzyl)carbamoyl)-2H-benzo[b][1,4]oxazine-4(3H)-yl)methyl)-[1,1′-biphenyl]-2-carboxylic acid], the “Binding assay (1 μLM)” value is recorded as “+”.

With `COc1cccc(CNC(=O)c2ccc3c(c2)OCCN3Cc2ccc(-c3ccccc3C(=O)O)cc2)c1` [Example 72, 4′-((7-((3-methoxybenzyl)carbamoyl)-2H-benzo[b][1,4]oxazine-4(3H)-yl)methyl)-[1,1′-biphenyl]-2-carboxylic acid], the “Binding assay (1 μLM)” value is reported as “+”.

As for `O=C(NCc1ccc(Br)cc1)c1ccc2c(c1)OCCN2Cc1ccc(-c2ccccc2C(=O)O)cc1` [Example 73, 4′-((7-((4-bromobenzyl)carbamoyl)-2H-benzo[b][1,4]oxazine-4(3H)-yl)methyl)-[1,1′-biphenyl]-2-carboxylic acid], the “Binding assay (1 μLM)” value is “+”.

Take `C[C@H](NC(=O)c1ccc2c(c1)OCCN2Cc1ccc(-c2ccccc2C(=O)O)cc1)c1ccc(OC(F)(F)F)cc1` [Example 75, (S)-4′-((7-((1-(4-(trifluoromethoxy)phenyl)ethyl)carbamoyl)-2H-benzo[b][1,4]oxazine-4(3H)-yl)methyl)-[1,1′-biphenyl]-2-carboxylic acid]: the “Binding assay (1 μLM)” value is “+++”.

Take `C[C@H](NC(=O)c1ccc2c(c1)OCCN2Cc1ccc(-c2ccccc2C(=O)O)cc1)c1ccc(C(F)(F)F)cc1` [Example 76, (S)-4′-((7-((1-(4-(trifluoromethyl)phenyl)ethyl)carbamoyl)-2H-benzo[b][1,4]oxazine-4(3H)-yl)methyl)-[1,1′-biphenyl]-2-carboxylic acid]: the “Binding assay (1 μLM)” value is “+++”.

On to `C[C@H](NC(=O)c1ccc2c(c1)OCCN2Cc1ccc(-c2ccccc2C(=O)O)cc1)c1ccc(SC(F)(F)F)cc1` [Example 77, (S)-4′-((7-((1-(4-((trifluoromethyl)thio)phenyl)ethyl)carbamoyl)-2H-benzo[b][1,4]oxazine-4(3H)-yl)methyl)-[1,1′-biphenyl]-2-carboxylic acid], for which the “Binding assay (1 μLM)” value is recorded as “+++”.

For the molecule `C[C@H](NC(=O)c1ccc2c(c1)OCCN2Cc1ccc(-c2ccccc2C(=O)O)cc1)c1ccc(C(C)(C)C)cc1` [Example 78, (S)-4′-((7-((1-(4-(tert-butyl)phenyl)ethyl)carbamoyl)-2H-benzo[b][1,4]oxazine-4(3H)-yl)methyl)-[1,1′-biphenyl]-2-carboxylic acid], the “Binding assay (1 μLM)” value is “++”.

As for `Cc1cc(F)ccc1[C@H](C)NC(=O)c1ccc2c(c1)OCCN2Cc1ccc(-c2ccccc2C(=O)O)cc1` [Example 79, (S)-4′-((7-((1-(4-fluoro-2-methylphenyl)ethyl)carbamoyl)-2H-benzo[b][1,4]oxazine-4(3H)-yl)methyl)-[1,1′-biphenyl]-2-carboxylic acid], the “Binding assay (1 μLM)” value is reported as “++”.

For `Cc1ccc([C@H](C)NC(=O)c2ccc3c(c2)OCCN3Cc2ccc(-c3ccccc3C(=O)O)cc2)cc1F` [Example 80, (S)-4′-((7-((1-(3-fluoro-4-methylphenyl)ethyl)carbamoyl)-2H-benzo[b][1,4]oxazine-4(3H)-yl)methyl)-[1,1′-biphenyl]-2-carboxylic acid], the “Binding assay (1 μLM)” value is given as “++”.

As for `C[C@@H](NC(=O)c1ccc2c(c1)OCCN2Cc1ccc(-c2ccccc2C(=O)O)cc1)c1ccc(C#N)cc1` [Example 81, (R)-4′-((7-((1-(4-cyanophenyl)ethyl)carbamoyl)-2H-benzo[b][1,4]oxazine-4(3H)-yl)methyl)-[1,1′-biphenyl]-2-carboxylic acid], the “Binding assay (1 μLM)” value was “+++”.

As to `O=C(NC1COc2ccccc2C1)c1ccc2c(c1)OCCN2Cc1ccc(-c2ccccc2C(=O)O)cc1` (stereo not shown) [Example 82], the “Binding assay (1 μLM)” value was “+++”.

As to `C[C@H](NC(=O)c1ccc2c(c1)OCCN2Cc1ccc(-c2ccccc2C(=O)O)cc1)c1c(F)cccc1F` [Example 83, (S)-4′-((7-((1-(2,6-fluorophenyl)ethyl)carbamoyl)-2H-benzo[b][1,4]oxazine-4(3H)-yl)methyl)-[1,1′-biphenyl]-2-carboxylic acid], the “Binding assay (1 μLM)” value is given as “++”.

The record behind these values is US20160355483A1, “COMPOUND BINDING TO PPARG BUT NOT ACTING AS PROMOTER AND PHARMACEUTICAL COMPOSITION FOR TREATING PPARG-RELATED DISEASES CONTAINING SAME AS ACTIVE INGREDIENT” (Hyundai Pharm Co., Ltd., priority 2014, published 2016).
